Measurements reported in patent US8673979B2, “Pharmaceutical compositions for headache, migraine, nausea and emesis” (Meditor Pharmaceuticals Ltd., priority 2000, dated 2014).

Legend:
[1] = test system: migraine attack; test: Case reports: oral tablets during migraine attacks; assay type: in vivo, human; conditions: for Side effects of past medical treatment: in vivo
Procedure: Previous medical history: The subject is a smoking person first diagnosed as a classical migraine sufferer. Except for this they are completely healthy. Until two years ago the frequency of the migraine attacks was seven episodes per month. During the last two years they were treated with different kinds of recognized medications, with little or no success. Due to lack of response to the medical treatment during the migraine attacks, they tried alternative medicine treatments.
First attack: The subject suffered an acute migraine attack that lasted 72 hours. […] On the next day the subject received a single dose of 50 mg S-ethylisothiouronium diethylphosphate (2 tablets of 25 mg each). […] Between 10 to 15 minutes following administration the pain abruptly disappeared, as did all other symptoms, which appeared during the migraine attack.
Second attack: (three weeks later) The second migraine attack started during the night. On the next day the subject received once again 2 tablets of S-ethylisothiouronium diethylphosphate (50 mg). This time the intake of the tablets was during the peak of the migraine attack, after having a meal. Within 20 minutes the headache was relieved, the subject was able to focus their eyesight, and the photophobia disappeared. There was a weak headache but its intensity was reduced. Three hours later the subject took two more tablets of S-ethylisothiouronium diethylphosphate (50 mg). Within 15 minutes the migraine pain disappeared.
Third attack: (two and a half weeks after the second attack) the migraine attack started on their way to work. An hour after onset within the peak of the migraine attack, the subject received 2 tablets of S-ethylisothiouronium diethylphosphate (each of 25 mg). Drug was taken on empty stomach. Within 11 minutes the migraine symptoms disappeared.
Previous Medical History: The subject is a non-smoking person suffering from migraine attacks during the last two years. The frequency of the migraine attacks is once a month before the menstruation period. The pain appears in the temples, the sinuses and spreads down to the lower jaw. The duration of the photophobia was about 48 hours. So far the subject has not applied to receive specific medical treatment and used to take conventional analgesic drugs.
First attack: The onset of an acute migraine attack was in the morning and the symptoms grew stronger during the day. Just before noon time the subject received one tablet of S-ethylisothiouronium diethylphosphate (25 mg). […] Two hours later the subject received 2 more tablets of S-ethylisothiouronium diethylphosphate (each of 25 mg). Ten minutes later, the migraine pain disappeared.
Second attack: (about four weeks after the first attack) The migraine attack started as a consequence of very hot weather conditions. The intensity of this attack was greater than the usual migraine attacks. In the morning, the subject received 2 tablets of S-ethylisothiouronium diethylphosphate (50 mg) that were taken on an empty stomach. Within 20 minutes of S-ethylisothiouronium diethylphosphate intake there was a significant relief in migraine pain. Fifteen minutes later the pain disappeared. Later that day, during the afternoon, the subject suffered a weak pain. This time the subject self administered analgesic drugs and the pain disappeared.

[2] = therapeutic doses; cited from earlier work
[3] = test system: acute migraine attack (headache); test: Dose escalating exploratory study of Difetur tablets for acute migraine attack: headache reduction; assay type: in vivo, human; conditions: for Percentage of Patients Benefited by Treatment: headache grade 3-4 reduced to 1-2; for Time elapsed to Effect: time after ingestion to headache grade 1-2
Procedure: Dose escalating exploratory study on the safety and efficacy of Difetur tablets for the treatment of acute migraine attack.
(§1) The purpose of following exploratory protocol is to evaluate the safety and potential efficacy of Difetur (S-ethylisothiouronium diethylphosphate) tablets, in escalating doses starting at 10 mg and up to 50 mg, in the treatment of a single acute migraine attack. The study was designed as an open study in a selected population of subjects classified according to IHS criteria as suffering from migraine headaches of moderate or severe intensity, without aura. The study was conducted according to established international criteria for evaluating safety and efficacy for migraine treatment.
(§2) The study was performed as a 5 arm (groups) study. Only female patients classified as suffering from migraine without aura, according to IHS criteria are enrolled in the study. Each group consists of ten migraine patients who are treated during an acute migraine attack with Difetur tablets in a hospital setting. The initial dose of Difetur is 10 mg (1 tablet), consequently increasing to 20 mg, 30 mg, 40 mg, and 50 mg. The total number of patients to be enrolled is 50. The patients are hospitalized and followed for at least 4 hours to assess the safety, efficacy and possible side effects of Difetur.
In the first group of 10 patients each receive the initial dose of 10 mg of the study medication in a single tablet form. The dose of 50 mg is given as two tablets of 25 mg each. The tablets are individually packed in blister package, and have a label identifying the study medication as an investigational drug. Each dose in an escalating manner is given to 10 patients. The medication is swallowed with a glass of water under the supervision of an attending physician.
Headache severity is graded verbally in a 4-points scale: severe (grade 4), moderate (grade 3), mild (grade 2), or no pain (grade 1). Success is considered as a reduction of the headache severity from a severe or moderate headache (grade 3-4) to mild or no pain (grade 1-2).

[4] = test system: emesis during migraine attack; test: Difetur tablets: emesis/nausea treatment during migraine attack; assay type: in vivo, human
Procedure: as §1, §2
4.2 Secondary Efficacy Targets are the Reduction of Nausea, Vomiting and Light And Sound Sensitivity.
These are assigned for their presence, absence or disappearance as documented by the patient.

[5] = test system: acute migraine attack (headache); test: Clinical trial of intravenous Difetur 10% solution in acute migraine attack; assay type: in vivo, human; conditions: for Percentage of Patients Benefited by Treatment / Mean time elapsed to Effect: 0.6 mg/kg IV drip; for Mean time elapsed to Effect: to grade 1-0
Procedure: as §1, with “protocol was” for “protocol is”, “Difetur 10% solution for injection,” for “Difetur (S-ethylisothiouronium diethylphosphate) tablets,”, “in dose 0.6 mg/kg,” for “in escalating doses starting at 10 mg and up to 50 mg,”, “in” for “in the”
Difetur was presented as 10% (100 mg/mL) solution in 1 mL ampoules. It was dissolved in 100 mL of saline solution in intravenous device before treatment. The dose of Difetur was 0.6 mg/kg, given by intravenous drip during 10 min.
Headache severity was graded verbally on a 5-point scale: very severe (grade 4), severe (grade 3), moderate (grade 2), mild (grade 1), no pain (grade 0). Success was considered as reduction of the headache severity from very severe, severe or moderate (grade 4-2) to mild or no pain (grade 1-0).

[6] = Case 2, second attack, 50 mg oral, empty stomach

Which “Side effects of past medical treatment” value [1] does the source give for `CNS(=O)(=O)Cc1ccc2[nH]cc(CCN(C)C)c2c1` [Imitrex, Sumatriptan succinate, reference compound] here?
Its value is “various strong side effects”.

Which “Side effects of past medical treatment” value [1] does the source give for `CN(C)CCc1c[nH]c2ccc(C[C@H]3COC(=O)N3)cc12` [Zomig, reference compound] here?
The value was “various strong side effects”.

Which “Patients with nausea and vomiting” value [2] does the source give for `CN1C[C@H](C(=O)N[C@]2(C)O[C@@]3(O)[C@@H]4CCCN4C(=O)[C@H](Cc4ccccc4)N3C2=O)C=C2c3cccc4[nH]cc(c34)C[C@H]21` [ergotamine] here?
The value was “up to 10%”.

What does the source list for “S-ethylisothiouronium diethylphosphate [Difetur]”?
Percentage of Patients Benefited by Treatment ([3]; 10 mg oral tablet): 0%; Percentage of Patients Benefited by Treatment ([3]; 20 mg oral): 70%; Time elapsed to Effect ([3]; 20 mg oral): 43 min; Percentage of Patients Benefited by Treatment ([3]; 30 mg oral): 70%; Time elapsed to Effect ([3]; 30 mg oral): 58 min; Side effects ([3]; clinical trials, human subjects): no side effects; Time to dramatic improvement ([3]; in some cases): ≤ 15 min; Time to reduction of migraine symptoms, on average ([3]; oral, at peak of migraine attack): around 45 minutes; Time to relief ([3]; treatment initiated at peak of migraine attack): ≤ 60 min; Percentage of Patients Affected by Treatment (positive anti-emetic response) ([4]; 10 mg oral): 70%; Time elapsed until Effect (termination of emesis) ([4]; 10 mg oral): 28 min; Percentage of Patients Affected by Treatment (positive anti-emetic response) ([4]; 20 mg oral): 100%; Time elapsed until Effect (termination of emesis) ([4]; 20 mg oral): 25 min; Percentage of Patients Affected by Treatment (positive anti-emetic response) ([4]; 30 mg oral): 100%; Time elapsed until Effect (termination of emesis) ([4]; 30 mg oral): 29 min; Effect of low doses on nausea ([4]; low doses ineffective or less effective on headache): effective at reducing or abolishing the symptoms of nausea; Percentage of Patients Benefited by Treatment ([5]; headache grade 2): 87%; Mean time elapsed to Effect ([5]; headache grade 2): 13.7 min; Percentage of Patients Benefited by Treatment ([5]; headache grade 3): 100%; Mean time elapsed to Effect ([5]; headache grade 3): 25.5 min; Percentage of Patients Benefited by Treatment ([5]; headache grade 4): 100%; Mean time elapsed to Effect ([5]; headache grade 4): 50 min; Headache relief, overall ([5]; 0.6 mg/kg IV, 13 patients, all except one): significant headache relief; Side effects ([1]; Case 1, 50 mg oral): No side effects; Time to headache relief ([1]; Case 1, second attack, 50 mg oral, after a meal): ≤ 20 min; Time to disappearance of migraine pain ([1]; Case 1, second attack, further 50 mg three hours later): ≤ 15 min; Time to disappearance of migraine symptoms ([1]; Case 1, third attack, 50 mg oral, empty stomach): ≤ 11 min; Frequency of migraine attacks after treatment ([1]; Case 1, previously seven episodes per month): about three; Side effects ([1]; Case 2, 25 or 50 mg oral): No side effects; Time to disappearance of migraine pain ([1]; Case 2, first attack, 2 more 25 mg tablets two hours later): Ten; Change in migraine pain ([1]; Case 2, first attack, one 25 mg tablet): No substantial change; Time from significant relief to disappearance of pain [1, 6]: Fifteen; Time to significant relief in migraine pain [1, 6]: ≤ 20 min; Time to elimination of migraine symptoms ([1]; both case reports, at peak of attack): less than 20 minutes; Headache recurrence (rebound/relapse) ([1]; case reports): not observed
